Laboratory results published in US10314775B2, “Methods of increasing hair growth and improving hair appearance” (MyMD Pharmaceuticals, Inc., priority 2016, dated 2019).

Legend:
MAO-A = target: T1, MAO-A (Homo sapiens, UniProt P21397); assay: MAO-Glo luminescent assay, MAO-A inhibition; type: biochemical; settings: FIG. 1
T1 construct: purchased
T1 sequence (P21397 1-527): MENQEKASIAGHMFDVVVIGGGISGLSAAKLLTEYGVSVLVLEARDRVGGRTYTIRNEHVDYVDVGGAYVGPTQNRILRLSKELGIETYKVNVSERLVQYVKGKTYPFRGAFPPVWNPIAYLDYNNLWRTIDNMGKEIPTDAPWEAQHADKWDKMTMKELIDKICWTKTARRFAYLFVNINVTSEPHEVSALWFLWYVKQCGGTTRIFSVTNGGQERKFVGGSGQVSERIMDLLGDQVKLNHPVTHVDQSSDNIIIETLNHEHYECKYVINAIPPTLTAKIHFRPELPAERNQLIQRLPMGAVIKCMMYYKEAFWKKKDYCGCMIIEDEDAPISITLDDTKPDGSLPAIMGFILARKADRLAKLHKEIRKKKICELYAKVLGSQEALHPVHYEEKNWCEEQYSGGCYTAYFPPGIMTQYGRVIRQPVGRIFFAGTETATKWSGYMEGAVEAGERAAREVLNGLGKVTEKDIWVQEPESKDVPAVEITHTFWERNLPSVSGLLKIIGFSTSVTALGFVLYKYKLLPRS
Text: (§1) This example describes experiments for determining monoamine oxidase (MAO) inhibition for isomyosmine and other alkaloids. MAOs are enzymes located on the outer membrane of mitochondria and are involved in the catabolism of monoamine neurotransmitters. There are two well-characterized isoenzymes: MAO-A, which predominantly catabolizes serotonin and norepinephrine, and MAO-B, which preferentially catabolizes benzylamine and phenylethylamine. Dopamine and tyramine are metabolized by both isoforms.
(§2) To detect the activity of MAO, a luminescent method (MAO-Glo Assay kit, from Promega, Cat # V1401) was used. In this method, a MAO substrate (a derivative of beetle luciferin provided in the kit) is mixed with the compound to be tested (in this case, myosmine and control compounds). Then, the MAO enzymes (either A or B, purchased separately) are added to the mixture and incubated with the reaction for 1 hour at room temperature. The MAO enzymes, if not inhibited by the test compound, will convert the substrate into methyl ester luciferin. Finally, a luciferin detection reagent (provided by the kit) is added (20 minutes at room temperature) to stop the MAO reaction and convert methyl ester luciferin into D-luciferin. […] The luminescent signal is measured and recorded using a luminometer.
Anatabine was obtained from Emerson Resources, Norristown, Pa.

MAO-B = target: T2, MAO-B (Homo sapiens, UniProt P27338); assay: MAO-Glo luminescent assay, MAO-B inhibition; type: biochemical; settings: FIG. 2; compared with myosmine, anatabine, anabasine, nornicotine
T2 construct: purchased
T2 sequence (P27338 1-520): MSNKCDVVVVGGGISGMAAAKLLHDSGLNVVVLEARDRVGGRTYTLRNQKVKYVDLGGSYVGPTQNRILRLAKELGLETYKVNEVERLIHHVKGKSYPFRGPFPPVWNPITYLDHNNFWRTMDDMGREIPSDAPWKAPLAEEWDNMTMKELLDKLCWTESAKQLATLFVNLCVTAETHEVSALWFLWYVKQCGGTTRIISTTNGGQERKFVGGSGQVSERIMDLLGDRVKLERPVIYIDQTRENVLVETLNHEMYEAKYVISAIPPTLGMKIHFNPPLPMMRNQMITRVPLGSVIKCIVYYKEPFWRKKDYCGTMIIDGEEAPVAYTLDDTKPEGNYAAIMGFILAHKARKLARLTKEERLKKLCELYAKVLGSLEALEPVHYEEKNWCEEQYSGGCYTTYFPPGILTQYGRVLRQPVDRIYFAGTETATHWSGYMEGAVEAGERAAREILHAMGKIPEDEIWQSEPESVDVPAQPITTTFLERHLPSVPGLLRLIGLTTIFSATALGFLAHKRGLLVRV
Text: as §1
as §2, with “luminometer. […]” for “luminometer.”

male-pattern baldness = assay: Oral treatment of a person with male-pattern baldness (scalp photographs); type: in vivo, human; settings: oral 60 mg/day, photographs after three weeks and 90 days of treatment (FIG. 3-5)
Procedure: A person and approximately 75 kg in weight was experiencing male-pattern baldness. The individual was orally administered isomyosmine at a dosage of 60 mg/day over the course of three weeks. FIG. 3 is a photograph of the scalp of the individual before treatment. FIG. 4 is a photograph of the scalp of the individual after three weeks of treatment (and a haircut). FIG. 5 is a photograph of the scalp of the individual after 90 days of treatment.

C1=NC(c2cccnc2)CC1 (stereo not shown) [isomyosmine, 3-(3,4-dihydro-2H-pyrrol-2-yl)-pyridine]
inhibition at 2000 µM (MAO-A; 2 mM concentration (2,000 micromolar), read-out: inhibition of the enzymatic activity of MAO-A): ~50%
inhibiting the enzymatic activity of MAO-A, comparison of curves (MAO-A; compared with myosmine, anatabine, anabasine, nornicotine, clorgyline positive control): the most potent of the five
inhibiting the activity of MAO-B, comparison of curves (MAO-B): the most potent among the five alkaloids tested
hair growth on the scalp (male-pattern baldness): significant new growth of healthy, dark-colored hair on the scalp
